Molecules are shown by their SMILES. Where two headings read alike, the source gives them in different places.

Experimental findings from patent US20260297060A1, “COMPOUNDS FOR THE DEGRADATION OF MUTANT BRAF” (C4 THERAPEUTICS, INC., priority 2023, published 2026) are described below.

Experiment [1] has as its target T1, BRAF V600E (Homo sapiens, UniProt P15056+Q96SW2, V600E).
T1 construct: knock-in of the HiBiT tag to the endogenous BRAF V600E locus; host or cells: A375.10 (A375 clonal line, CRISPR HiBiT knock-in at the endogenous BRAF V600E locus)
Nature of the experiment: BRAF V600E HiBiT Degradation Assay. Type of experiment: cell-based. The method in brief:
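Endogenous HiBiT knock-in on BRAF V600E in A375 cells (clone A375.10); 11-point half-log series, top 10 μM, 2, 6 or 24 h at 37° C. Lytic HiBiT luminescence, background-subtracted, normalized to DMSO; 4-parameter fit gives DC50, Emax (residual protein) and IP (inflection point).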

For experiment [2], the system named is A375-NRAS^Q61K cells. Nature of the experiment: CTGlo Cell Viability Assay, A375-NRAS^Q61K (A375.11) cells, 96 hours. It is filed as cell-based, human. The settings on record: A375.11 (A375-NRAS^Q61K) cells; for Emax / CTGlo A375.11 96 hours Emax: lowest % viability achieved. The gist of the method: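 Viability as CellTiter-Glo ATP luminescence after 96 h compound exposure at 37 °C; A375.11 (BRAF V600E/NRAS Q61K) cells at 250/well, top final concentration 10 μM in half-log steps. Signal was background-corrected and set relative to DMSO controls. A 4-parameter logistic fit gave GI50 (50% crossing) and Emax.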

Setting [3] is: A375.10 cells, BRAF V600E, 2 hours, inflection point, read-out: HiBiT-Degradation A375.10 BRAF 2 hours IP.
[4] abbreviates: A375.10 cells, BRAF V600E, 2 hours, read-out: HiBiT-Degradation A375.10 BRAF 2 hours DC50.
The mark [5] stands for this setting: A375.10 cells, BRAF V600E, 2 hours, residual protein remaining, read-out: HiBiT-Degradation A375.10 BRAF 2 hours Emax.
Where [6] appears, read: A375.10 cells, BRAF V600E, 2 hours, residual protein remaining.

T1 sequence (P15056 whole entry V600E): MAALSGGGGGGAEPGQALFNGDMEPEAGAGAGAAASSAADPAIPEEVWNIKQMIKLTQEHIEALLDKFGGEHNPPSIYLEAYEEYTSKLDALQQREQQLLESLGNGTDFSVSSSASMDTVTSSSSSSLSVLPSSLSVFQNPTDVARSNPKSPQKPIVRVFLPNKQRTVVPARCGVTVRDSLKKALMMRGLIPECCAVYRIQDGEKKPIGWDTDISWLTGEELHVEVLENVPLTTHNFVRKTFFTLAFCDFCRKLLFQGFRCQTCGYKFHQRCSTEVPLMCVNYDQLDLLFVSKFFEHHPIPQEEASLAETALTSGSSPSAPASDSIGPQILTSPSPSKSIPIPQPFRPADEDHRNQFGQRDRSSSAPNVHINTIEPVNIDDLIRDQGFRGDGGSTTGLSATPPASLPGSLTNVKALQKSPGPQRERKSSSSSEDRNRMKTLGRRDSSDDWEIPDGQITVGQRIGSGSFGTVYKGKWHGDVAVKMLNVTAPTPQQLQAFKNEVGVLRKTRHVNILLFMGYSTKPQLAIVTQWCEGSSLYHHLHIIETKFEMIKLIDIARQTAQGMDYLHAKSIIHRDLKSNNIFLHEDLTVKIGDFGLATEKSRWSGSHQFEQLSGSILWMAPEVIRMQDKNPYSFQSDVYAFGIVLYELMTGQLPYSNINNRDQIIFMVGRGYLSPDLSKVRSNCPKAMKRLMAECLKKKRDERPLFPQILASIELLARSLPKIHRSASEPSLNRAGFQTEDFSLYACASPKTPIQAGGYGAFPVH
T1 sequence (Q96SW2 whole entry): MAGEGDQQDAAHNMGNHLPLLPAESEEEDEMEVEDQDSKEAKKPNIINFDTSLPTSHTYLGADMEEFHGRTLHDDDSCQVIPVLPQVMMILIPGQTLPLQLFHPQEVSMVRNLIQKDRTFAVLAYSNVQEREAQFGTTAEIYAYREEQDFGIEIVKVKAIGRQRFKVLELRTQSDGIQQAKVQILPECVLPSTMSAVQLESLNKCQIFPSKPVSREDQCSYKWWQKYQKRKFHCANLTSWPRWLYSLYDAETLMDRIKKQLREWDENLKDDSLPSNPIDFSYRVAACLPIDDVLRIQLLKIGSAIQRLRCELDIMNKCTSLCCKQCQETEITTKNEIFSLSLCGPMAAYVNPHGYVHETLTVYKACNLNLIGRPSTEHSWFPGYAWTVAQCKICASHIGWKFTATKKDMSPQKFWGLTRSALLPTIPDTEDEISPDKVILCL
T1 sequence (Q16531 whole entry partner): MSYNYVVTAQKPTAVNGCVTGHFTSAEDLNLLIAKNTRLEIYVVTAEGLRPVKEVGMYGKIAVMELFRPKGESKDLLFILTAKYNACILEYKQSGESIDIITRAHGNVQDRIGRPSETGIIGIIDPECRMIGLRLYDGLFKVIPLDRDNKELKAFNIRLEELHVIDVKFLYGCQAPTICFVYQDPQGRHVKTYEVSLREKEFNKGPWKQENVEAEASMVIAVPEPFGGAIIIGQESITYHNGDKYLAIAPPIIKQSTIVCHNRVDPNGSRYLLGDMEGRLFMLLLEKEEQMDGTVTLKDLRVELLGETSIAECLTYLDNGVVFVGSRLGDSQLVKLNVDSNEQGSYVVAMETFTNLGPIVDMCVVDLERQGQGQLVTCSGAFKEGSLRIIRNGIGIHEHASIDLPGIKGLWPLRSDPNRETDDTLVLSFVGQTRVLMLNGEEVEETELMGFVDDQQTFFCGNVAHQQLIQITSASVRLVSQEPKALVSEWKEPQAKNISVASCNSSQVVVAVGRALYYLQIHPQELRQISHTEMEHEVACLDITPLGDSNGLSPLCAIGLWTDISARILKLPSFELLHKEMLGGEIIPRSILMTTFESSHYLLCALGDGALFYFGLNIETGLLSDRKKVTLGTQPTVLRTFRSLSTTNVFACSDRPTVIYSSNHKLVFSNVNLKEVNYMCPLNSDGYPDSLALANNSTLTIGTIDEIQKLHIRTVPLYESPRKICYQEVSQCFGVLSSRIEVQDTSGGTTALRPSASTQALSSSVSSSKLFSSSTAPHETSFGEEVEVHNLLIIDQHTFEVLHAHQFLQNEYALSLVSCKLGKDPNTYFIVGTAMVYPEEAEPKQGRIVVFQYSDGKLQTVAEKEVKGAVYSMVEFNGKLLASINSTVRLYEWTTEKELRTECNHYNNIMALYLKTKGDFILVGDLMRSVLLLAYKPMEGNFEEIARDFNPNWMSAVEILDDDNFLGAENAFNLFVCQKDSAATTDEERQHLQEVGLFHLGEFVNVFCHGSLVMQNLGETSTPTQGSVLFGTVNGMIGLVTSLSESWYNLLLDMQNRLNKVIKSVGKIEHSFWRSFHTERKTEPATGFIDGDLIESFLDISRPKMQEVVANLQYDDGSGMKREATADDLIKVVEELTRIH

`CCN(C)S(=O)(=O)Nc1ccc(F)c(Oc2ccc3ncn(C4CC5(CCN(C6COC7(CCN(c8cc9c(cc8F)c(N8CCC(=O)NC8=O)nn9C)CC7)C6)CC5)C4)c(=O)c3c2)c1C#N` (centres unmarked) [Compound 216]: the DC50 in experiment [1] (setting [3]) and in experiment [1] (setting [4]) was less than 1000 nM in each case. Besides, the Emax is less than 50% in experiment [1] (setting [5]) and 50 to 90% in experiment [2] (Homo sapiens, 96 h). The same compound gave a GI50 in experiment [2] (Homo sapiens, 96 h) of less than 1000 nM.
As for `CN(CCO)S(=O)(=O)Nc1ccc(F)c(Oc2ccc3ncc(C4CC5(CCN(C6CCC(c7cc8c(cc7F)c(N7CCC(=O)NC7=O)nn8C)CC6)CC5)C4)nc3c2)c1C#N` (single isomer, unassigned) [Compound 294, 7-[2-cyano-6-fluoro-3-[[2-hydroxyethyl(methyl)sulfamoyl]amino]phenoxy]-2-[7-[4-[3-(2,4-dioxohexahydropyrimidin-1-yl)-5-fluoro-1-methyl-indazol-6-yl]cyclohexyl]-7-azaspiro[3.5]nonan-2-yl]quinoxaline], the DC50 in experiment [1] (setting [3]) and in experiment [1] (setting [4]) was less than 1000 nM in each case. The Emax in experiment [1] (setting [5]) fell in the range of 50 to 90%. The “CTGlo A375.11 96 hours Emax” value in experiment [2] was “** (<90% and >50%)”. In addition, the GI50 in experiment [2] (Homo sapiens, 96 h) lay in the range of 1000 to 10000 nM.
As for `CCN(C)S(=O)(=O)Nc1ccc(F)c(Oc2ccc3ncc(OCC4CCN(C5CCC(c6ccc(NC7CCC(=O)NC7=O)cc6F)CC5)CC4)nc3c2)c1C#N` (single isomer, unassigned) [Compound 116, 7-[2-cyano-3-[[ethyl(methyl)sulfamoyl]amino]-6-fluoro-phenoxy]-2-[[1-[4-[4-[(2,6-dioxo-3-piperidyl)amino]-2-fluoro-phenyl]cyclohexyl]-4-piperidyl]methoxy]quinoxaline], the DC50 in experiment [1] (setting [3]) was less than 1000 nM; in experiment [1] (setting [4]) it was 1000 to 10000 nM. Further, the Emax is 50 to 90% in experiment [1] (setting [5]) and 50 to 90% in experiment [2] (Homo sapiens, 96 h). This compound displayed a GI50 in experiment [2] greater than 10000 nM.
Turning to `CCN(C)S(=O)(=O)Nc1ccc(F)c(Oc2ccc3ncn([C@H]4COC5(CCN(C6CCC(c7ccc(NC8CCC(=O)NC8=O)cc7F)CC6)CC5)C4)c(=O)c3c2F)c1C#N` (single isomer, unassigned) [Compound 51], in experiment [1] (setting [3]), the DC50 was less than 1000 nM. In addition, in experiment [1] (setting [4]), the DC50 is less than 1000 nM. In experiment [1] (setting [6]), the “HiBiT-Degradation A375.10 BRAF 2 hours Emax” value was “** (<90% and >50%)”. Further, in experiment [2], the 50% growth inhibitory concentration (GI50) was in the range of 1000 to 10000 nM and the “CTGlo A375.11 96 hours Emax” value is recorded as “*** (<=50%)”.
With `CCN(C)S(=O)(=O)Nc1ccc(F)c(Oc2ccc3ncn(C4CCC(N5CC6(CCN(c7cc8c(cc7F)c(N7CCC(=O)NC7=O)nn8C)CC6)C5)CC4)c(=O)c3c2)c1C#N` (single isomer, unassigned) [Compound 221, 6-[2-cyano-3-[[ethyl(methyl)sulfamoyl]amino]-6-fluoro-phenoxy]-3-[4-[7-[3-(2,4-dioxohexahydropyrimidin-1-yl)-5-fluoro-1-methyl-indazol-6-yl]-2,7-diazaspiro[3.5]nonan-2-yl]cyclohexyl]-4-oxo-quinazoline], the DC50 in experiment [1] (setting [3]) and in experiment [1] (setting [4]) was less than 1000 nM each time. Further, the Emax in experiment [1] (setting [5]) is less than 50%; in experiment [2] (Homo sapiens, 96 h), 50 to 90%. In addition, the GI50 in experiment [2] (Homo sapiens, 96 h) fell in the range of 1000 to 10000 nM.
`CCN(C)S(=O)(=O)Nc1ccc(F)c(Nc2ccc3ncn([C@H]4COC5(CCN(C6CCC(c7ccc(NC8CCC(=O)NC8=O)cc7F)CC6)CC5)C4)c(=O)c3c2)c1C#N` (single isomer, unassigned) [Compound 57]: the DC50 is less than 1000 nM in experiment [1] (setting [3]); less than 1000 nM in experiment [1] (setting [4]); less than 1000 nM in experiment [1] (A375.10 cells, BRAF V600E, 6 hours, inflection point, read-out: HiBiT-Degradation A375.10 BRAF 6 hours IP); less than 1000 nM in experiment [1] (A375.10 cells, BRAF V600E, 6 hours, read-out: HiBiT-Degradation A375.10 BRAF 6 hours DC50); less than 1000 nM in experiment [1] (A375.10 cells, HiBiT, BRAF V600E, 24 hours, read-out: HiBiT-Degradation A375.10 BRAF 24 hours DC50); less than 1000 nM in experiment [1] (A375.10 cells, HiBiT, BRAF V600E, 24 hours, read-out: HiBiT-Degradation A375.10 BRAF 24 hours IP). Moreover, in experiment [1] (setting [6]), the “HiBiT-Degradation A375.10 BRAF 2 hours Emax” value is listed as “*** (<=50%)”. In addition, the Emax was less than 50% in experiment [1] (A375.10 cells, BRAF V600E, 6 hours, residual protein remaining, read-out: HiBiT-Degradation A375.10 BRAF 6 hours Emax) and less than 50% in experiment [1] (A375.10 cells, HiBiT, BRAF V600E, 24 hours, read-out: HiBiT-Degradation A375.10 BRAF 24 hours Emax). In experiment [2], this compound showed a GI50 of 1000 to 10000 nM. For the same compound, the “CTGlo A375.11 96 hours Emax” value in experiment [2] was “** (<90% and >50%)”.
As for `CCN(C)S(=O)(=O)Nc1ccc(F)c(Oc2ccc3ncn(C4CCC5(CC4)CCN(C4CCC(c6cc7c(cc6F)c(N6CCC(=O)NC6=O)nn7C)CC4)CC5)c(=O)c3c2)c1C#N` (single isomer, unassigned) [Compound 12], the DC50 in experiment [1] (setting [3]) and in experiment [1] (setting [4]) was less than 1000 nM in each case. Besides, the Emax was less than 50% in experiment [1] (setting [5]) and less than 50% in experiment [2] (Homo sapiens, 96 h). The compound also had a concentration for 50% growth inhibition (GI50) in experiment [2] of less than 1000 nM.
As to `CCN(C)S(=O)(=O)Nc1ccc(F)c(Oc2ccc3ncc(OC4CC5(C4)CN(C4CCC(c6cc7c(cc6F)c(N6CCC(=O)NC6=O)nn7C)CC4)C5)nc3c2)c1C#N` (single isomer, unassigned) [Compound 282, 7-[2-cyano-3-[[ethyl(methyl)sulfamoyl]amino]-6-fluoro-phenoxy]-2-[[2-[4-[3-(2,4-dioxohexahydropyrimidin-1-yl)-5-fluoro-1-methyl-indazol-6-yl]cyclohexyl]-2-azaspiro[3.3]heptan-6-yl]oxy]quinoxaline], the DC50 in experiment [1] (setting [3]) and in experiment [1] (setting [4]) was less than 1000 nM throughout. The “HiBiT-Degradation A375.10 BRAF 2 hours Emax” value in experiment [1] (setting [6]) is “** (<90% and >50%)”. Besides, in experiment [2], the concentration for 50% growth inhibition (GI50) is less than 1000 nM. Besides, the “CTGlo A375.11 96 hours Emax” value in experiment [2] is “*** (<=50%)”.
For the compound `CCN(C)S(=O)(=O)Nc1ccc(F)c(Oc2ccc3ncn([C@H]4COC5(CCC(N6CC[C@@H](c7ccc(NC8CCC(=O)NC8=O)cc7F)C(F)(F)C6)CC5)C4)c(=O)c3c2)c1C#N` (stereo partly drawn) [Compound 189, 6-[2-cyano-3-[[ethyl(methyl)sulfamoyl]amino]-6-fluoro-phenoxy]-3-[(3R)-8-[(4S)-4-[4-[(2,6-dioxo-3-piperidyl)amino]-2-fluoro-phenyl]-3,3-difluoro-1-piperidyl]-1-oxaspiro[4.5]decan-3-yl]-4-oxo-quinazoline], the DC50 in experiment [1] (setting [3]) and in experiment [1] (setting [4]) was less than 1000 nM each time. Also, the Emax in experiment [1] (read-out: HiBiT-Degradation A375.10 BRAF 2 hours Emax, A375.10 cells, BRAF V600E, 2 hours, residual protein remaining) was 50 to 90%; in experiment [2] (Homo sapiens, 96 h), less than 50%. The compound further returned a GI50 in experiment [2] (Homo sapiens, 96 h) greater than 10000 nM.
Consider `CCN(C)S(=O)(=O)Nc1ccc(F)c(Oc2ccc3ncn([C@@H]4CO[C@@]5(CCN(C6CCC(c7cc8c(cc7F)c(N7CCC(=O)NC7=O)nn8C)CC6)C5)C4)c(=O)c3c2)c1C#N` (single isomer, unassigned) [Compound 286], for which the DC50 in experiment [1] (setting [3]) and in experiment [1] (setting [4]) was less than 1000 nM in each case. Moreover, the Emax is less than 50% in experiment [1] (setting [5]) and less than 50% in experiment [2] (Homo sapiens, 96 h). In experiment [1] (A375.10 cells, HiBiT, BRAF V600E, 24 hours), the “HiBiT-Degradation A375.10 BRAF 24 hours Emax” value is “*** (<=50%)”. The same compound gave a GI50 in experiment [2] (Homo sapiens, 96 h) of less than 1000 nM.
As to `CCN(C)S(=O)(=O)Nc1ccc(F)c(Oc2ccc3ncn(C4CCC5(CC4)CCN(C4CCC(c6ccc(NC7CCC(=O)NC7=O)cc6F)CC4)CC5)c(=O)c3c2)c1C#N` (single isomer, unassigned) [Compound 11, 9-[6-[2-cyano-3-[[ethyl(methyl)sulfamoyl]amino]-6-fluoro-phenoxy]-4-oxo-quinazolin-3-yl]-3-[4-[4-[(2,6-dioxo-3-piperidyl)amino]-2-fluoro-phenyl]cyclohexyl]-3-azaspiro[5.5]undecane], the DC50 in experiment [1] (setting [3]) and in experiment [1] (setting [4]) was less than 1000 nM in each case. For the same compound, the “HiBiT-Degradation A375.10 BRAF 2 hours Emax” value in experiment [1] (setting [6]) is “*** (<=50%)”. Besides, in experiment [2], the 50% growth inhibitory concentration (GI50) is greater than 10000 nM. The Emax in experiment [2] (Homo sapiens, 96 h) lay within 50 to 90%.
